A short description of data set [1]: Intrinsic clearance in human liver microsomes. The format is ADME, Microsome. The following applies: read-out: CLH.
The nature of data set [2]: Aqueous solubility of the compound at pH 6.5. The format is physicochemical.
Data set [3] is described as follows: Aqueous solubility of the compound at pH 1. It is filed as physicochemical.
Data set [4] is described as follows: Aqueous solubility of the compound at pH 7.4. The format is physicochemical.

Values after ≈ are worked out from the molar mass of the structure shown.

Regarding `OC(CC1c2ccccc2-c2cncn21)C1CCCCC1` (stereo unspecified), the predicted hepatic clearance in data set [1] was 18 mL/min/kg.
On to `OC(CC1c2c(F)cccc2-c2cncn21)C1CCCCC1` (stereo unspecified), for which the predicted hepatic clearance in data set [1] is 18.9 mL/min/kg.
`O[C@@H](C[C@H]1c2c(F)cccc2-c2cncn21)[C@H]1CC[C@H](O)CC1`: the predicted hepatic clearance in data set [1] was 6.2 mL/min/kg.
As to `O=C(N[C@H]1CC[C@H](C(O)CC2c3ccccc3-c3cncn32)CC1)c1ccccc1` (stereo partly specified), the solubility (commonly the concentration that dissolves in the medium under given conditions) in data set [2] stood at 22 µM (≈ 8.83 µg/mL); in data set [3], 363 µM (≈ 146 µg/mL); in data set [4], 25 µM (≈ 10 µg/mL).
For `OC1CCC(C(O)CC2c3c(F)cccc3-c3cncn32)CC1` (stereo unspecified), the solubility in data set [2] worked out at 329 µM (≈ 104 µg/mL); in data set [3], 353 µM (≈ 112 µg/mL); in data set [4], 316 µM (≈ 100 µg/mL). The predicted hepatic clearance in data set [1] was 4.06 mL/min/kg.
For the compound `O[C@H](C[C@H]1c2c(F)cccc2-c2cncn21)[C@H]1CC[C@@H](O)CC1`, the predicted hepatic clearance in data set [1] is 18.5 mL/min/kg.

The values above are taken from ChEMBL document CHEMBL4364294 (J Med Chem, 2019).
